Measurements as given in patent publication US20120296090A1, “Drug Repositioning Methods For Targeting Breast Tumor Initiating Cells” (The Methodist Hospital Research Institute, priority 2011, published 2012).
Entries after “also recorded” stand apart in the source; their conditions may differ.

What was measured:
[1] = tested on: BT549; assay: mammosphere-forming efficiency (MSFE) assay; type: cell-based, human; conditions: 10 nM and 1 μM, after a single treatment dose
Protocol: (§1) The bioinformatics systems-based methods described herein also identified a further subset of ten drugs that were subsequently tested in vitro and in vivo for their ability to inhibit breast TICs. These in silico results were first confirmed by in vitro studies that evaluated the effects of these repositioned drugs on mammosphere-forming efficiency. […] Next, limiting dilution transplantation assays were performed, whereupon SUM159 cells were treated with […] overnight and then transplanted the next day 200,000 cells/mouse (single sided).

[2] = tested on: SUM159; assay: mammosphere-forming efficiency (MSFE) assay; type: cell-based, human; conditions: 10 nM and 1 μM, after a single treatment dose
Protocol: as §1

[3] = tested on: SUM159 cells; assay: limiting dilution transplantation assay; type: in vivo; conditions: SUM159 cells treated overnight, transplanted 200,000 cells/mouse; vehicle control 9 of 12
Protocol: as §1

[4] = tested on: human breast cancer TICs; assay: mammosphere formation efficiency assay on triple-negative cancer cell lines; type: cell-based; conditions: at least two triple-negative cancer cell lines
From the text: (§2) Thus, the proposed drug-repositioning platform consists of CSB model, bioinformatics software, and drug information databases. Among the twenty-one drug candidates identified in this study, three drugs, i.e., sunitinib (Sutent®, Pfizer Oncology, New York, N.Y., USA), dasatinib (Sprycel®, Bristol-Myers Squibb, Princeton, N.J., USA) and chloroquine (Aralen®, sanofi-aventis, US, LLC, Bridgewater, N.J., USA) were further analyzed for their in vitro and in vivo effects on human breast cancer TICs, and in murine xenograft models. […] As a result of this finding, dasatinib is now currently in Phase II clinical trials for advanced breast cancer to assess the efficacy of this drug for inhibiting TICs.

[5] = tested on: human breast cancer TICs; assay: dilute transplantation assay in murine xenograft models; type: in vivo
From the text: as §2

[6] = tested on: breast TICs; assay: inhibition of breast TICs in vitro and in vivo (FIG. 3, human breast cancer xenograft mammosphere formation efficiency); type: cell-based
[7] = tested on: MCF7; conditions: cited from earlier work; for cell growth: considered dosages (<10 μM); for cell death / apoptosis: higher dosages, MCF7
[8] = tested on: H226, human non-small cell lung cancer (NSCLC); assay: Cell proliferation assay (CellTiter 96 AQueous One Solution); type: cell-based
Protocol: (§3) Five tumor cell lines were used in these studies: HT-29, human colorectal adenocarcinoma; H69, human small cell lung cancer (SCLC); H226, human non-small cell lung cancer (NSCLC) (squamous carcinoma); LNCaP, human prostate carcinoma; and U87-luc glioblastoma cell line. H69, H226, and LNCaP cells were grown in American Type Culture Collection (ATCC)-formulated RPMI-1640 Medium (ATCC, cat#30-2001; […]) supplemented with 10% fetal bovine serum (FBS) and 1% penicillin/streptomycin (Invitrogen, Carlsbad, Calif., USA). HT-29 cells were cultured in ATCC-formulated McCoy's 5a Medium (Modified) (ATCC, cat#30-2007). […]
(§4) Cell proliferation was analyzed using CellTiter 96 AQueous One Solution Cell Proliferation Assay (Promega, Madison, Wis., USA) according to the manufacturer's instructions. […] After 3-hrs' incubation, absorbance at 490 nm was measured using the FLUOstar™ Omega Microplate Reader (BMG LABTECH, Cary, N.C., USA). Background absorbance (490 nm) was corrected by subtracting the average 490 nm absorbance of the “no cell” control wells from absorbance values obtained for each of the test wells. The proliferative ratio (% surviving cells) in each sample was calculated by dividing the corrected absorbance value of treated cells by that of control cells with no drug treatment. The results were expressed as mean with standard errors from two independent studies.

[9] = tested on: HT-29, human colorectal adenocarcinoma; assay: as above; type: cell-based; conditions: colorectal cancer cell line HT-29; 48 hours of treatment
Protocol: as §3, §4

Structure (SMILES)	cell growth [7]	cell death / apoptosis [7]	further results
CCN(CC)CCCC(C)Nc1ccnc2cc(Cl)ccc12 (stereo not shown) [chloroquine]			MSFE (mammosphere-forming efficiency) [1]: dramatic reduction; MSFE (mammosphere-forming efficiency) [2]: dramatic reduction; tumor initiation rate (xenografts growing within 10 weeks) [3]: 1 of 12; anti-TICs effects (mammosphere formation efficiency assay) [4]: anti-TICs effects; anti-cancer effects in animal models (dilute transplantation assay) [5]: anti-cancer effects; inhibiting breast TICs [6]: effective in inhibiting breast TICs
C[C@]12CC[C@@H]3c4ccc(O)cc4C[C@@H](CCCCCCCCC[S+]([O-])CCCC(F)(F)C(F)(F)F)[C@H]3[C@@H]1CC[C@@H]2O (stereo partly shown) [fulvestrant]	significantly inhibited cell growth	does not induce any cell death; also recorded: did not induce the cell death	
COc1cc2ncnc(Nc3ccc(F)c(Cl)c3)c2cc1OCCCN1CCOCC1 [gefitinib]			effect on cell proliferation [8]: positive effects; effect on cell proliferation [9]: positive effects
CC(=O)O[C@H]1C(=O)[C@@]2(C)[C@H]([C@H](OC(=O)c3ccccc3)[C@]3(O)C[C@H](OC(=O)[C@H](O)[C@@H](NC(=O)c4ccccc4)c4ccccc4)C(C)=C1C3(C)C)[C@]1(OC(C)=O)CO[C@@H]1C[C@@H]2O [paclitaxel]	significantly inhibited cell growth	induce apoptosis at higher dosages; also recorded: some experiments also cause the cell death	
O=C(c1ccc(OCCN2CCCCC2)cc1)c1c(-c2ccc(O)cc2)sc2cc(O)ccc12 [raloxifene]	significantly inhibited cell growth	induce apoptosis at higher dosages; also recorded: induced cell death at higher dosages	
CC/C(=C(\c1ccccc1)c1ccc(OCCN(C)C)cc1)c1ccccc1 [tamoxifen]	significantly inhibited cell growth	induce apoptosis at higher dosages; also recorded: induced cell death at higher dosages	
